In EP0013786A1, “Imidazole derivatives, pharmaceutical compositions containing them and their preparation” (SYNTEX (U.S.A.) INC., priority 1979, dated 1980):

tested on: male Hilltop ICR-derived mice; assay: Maximal electroshock test in mice; assay type: in vivo; details: Mus musculus, ip, 0.25 h; dosed intraperitoneally in saline 15 minutes prior to transcorneal maximal electroshock (50 milliamps, 0.2 seconds); antagonism of tonic extension; read-out: ED50 (95% confidence limits)
Description: This test was performed in the standard manner, essentially as described by Swinyard et al., J. Pharm. Exp. Ther., Vol. 106, pp. 319-330 (1952). Groups of 8-10 male Hilltop ICR-derived mice weighing 20-30 grams were dosed intraperitoneally with a solution or suspension of drug in saline 15 minutes prior to a transcorneal maximal electroshock (50 milli- amps, 0.2 seconds). […] An active compound was capable of antagonizing the occurrence of the tonic extension which occurred immediately after the electroshock.

SMILES | ED50 [mg/kg]
CCCCOC(Cn1ccnc1)c1cccc2ccccc12 (stereo not drawn) [1-[2-(1-naphthyl)-2-(n-butoxy)ethyl]imidazole] | 16
COC(Cn1ccnc1)c1cccc2ccccc12 (stereo not drawn) [1-[2-(1-naphthyl)-2-(methoxy)ethyl]imidazole] | 19.4
Cc1ccccc1OC(Cn1ccnc1)c1ccc2ccccc2c1 (stereo not drawn) [1-[2-(2-naphthyl)-2-(2-methylphenoxy)ethyl]imidazole] | 32.6
CCOC(Cn1ccnc1)c1ccc2ccccc2c1 (stereo not drawn) [1-[2-(2-naphthyl)-2-(ethoxy)ethyl]imidazole] | 11.4
CSC(Cn1ccnc1)c1ccc2ccccc2c1 (stereo not drawn) [1-[2-(2-naphthyl)-2-(methylthio)ethyl]imidazole] | 37.1
c1ccc(OC(Cn2ccnc2)c2ccc3ccccc3c2)cc1 (stereo not drawn) [1-[2-(2-naphthyl)-2-(phenoxy)ethyl]imidazole] | 15.1
COC(Cn1ccnc1)c1ccc2ccccc2c1.Cl (stereo not drawn) [1-[2-(2-naphthyl)-2-(methoxy)ethyl]imidazole hydrochloride] | 10.4
Cl.Clc1ccc(OC(Cn2ccnc2)c2ccc3ccccc3c2)cc1 (stereo not drawn) [1[2-(2-naphthyl)-2-(4-chlorophenoxy)ethyl]imidazole hydrochloride] | 46.3

tested on: not listed separately; assay: Acute oral toxicity in mice; details: mouse, in vivo; single oral dose by stomach tube, aqueous carboxymethyl cellulose vehicle, observed for three weeks
Description: The following example illustrates acute oral toxicity of a representative compound.
Protocol: The test compound, l-[2-(2-naphthyl)-2-(methoxy)ethyl'imidazole hydrochloride, is suspended in an aqueous carboxymethyl cellulose suspending vehicle. Concentrations are adjusted so that doses can be given in volumes of 10 ml./kg. body weight. Groups of mice comprising six Swiss-Webster male mice in each group are used. A single oral dose, by stomach tube, of a final dosage of test compound is administered to the mice in each group. Each group receives a different dosage, one group serving as a control. After administration the mice are observed for a three week period.

SMILES | LD50 at 504 h [mg/kg]
COC(Cn1ccnc1)c1ccc2ccccc2c1.Cl (stereo not drawn) [1-[2-(2-naphthyl)-2-(methoxy)ethyl]imidazole hydrochloride] | ~100
